Where two headings read alike, the source gives them in different places.
Assays:
[1] = test system: JRCSF (R5); format: cell-based, HIV-1; conditions: PBMCs, tropism subtype R5
Procedure: (§1) First, 35 gp160 envelope genes derived from different patient samples that were originally identified as dual-tropic were cloned into an expression vector as described in Example 1. Tropism of pseudotyped virus was determined by measuring luciferase activity (relative light units, RLU) following infection of U87/CD4+CCR5+ or U87/CD4+CXCR4+ cells as described above. Inhibition of infection by small molecule CCR5-(Merck) and CXCR4-(AMD3100; AnorMED) inhibitors was examined on U87/CD4+CCR5+CXCR4+ cells, U87/CD4+CXCR4+ cells, and U87/CD4+CCR5+ cells. A subset of the envelope genes were also inserted into an NL4-3 infectious clone and evaluated for their ability to infect PBMCs in the presence of the CCR5- or CXCR4-inhibitors.

[2] = test system: Clone 28 (R5~X4_3); format: cell-based, HIV-1; conditions: PBMCs; Clone 28 envelope in NL4-3 infectious clone, tropism subtype R5~X4
Procedure: as §1

[3] = test system: Clone 34 (X4 >> R5_1); format: cell-based, HIV-1; conditions: PBMCs; Clone 34 envelope in NL4-3 infectious clone, tropism subtype X4 >> R5
Procedure: as §1

[4] = test system: Clone 22 (R5~X4_4); format: cell-based, HIV-1; conditions: PBMCs; Clone 22 envelope in NL4-3 infectious clone, tropism subtype R5~X4
Procedure: as §1

[5] = test system: NL43 (X4); format: cell-based, HIV-1; conditions: PBMCs; NL43, tropism subtype X4
Procedure: as §1

[6] = test system: Clone 25 (R5~X4_2); format: cell-based, HIV-1; conditions: PBMCs; Clone 25 envelope in NL4-3 infectious clone, tropism subtype R5~X4
Procedure: as §1

[7] = test system: Clone 31 (X4 >> R5_3); format: cell-based, HIV-1; conditions: PBMCs; Clone 31 envelope in NL4-3 infectious clone, tropism subtype X4 >> R5
Procedure: as §1

[8] = test system: Clone 33 (X4 >> R5_2); format: cell-based, HIV-1; conditions: PBMCs; Clone 33 envelope in NL4-3 infectious clone, tropism subtype X4 >> R5
Procedure: as §1

[9] = test system: Clone 26 (R5~X4_1); format: cell-based, HIV-1; conditions: PBMCs; Clone 26 envelope in NL4-3 infectious clone, tropism subtype R5~X4
Procedure: as §1

[10] = test system: Clone 4 (R5 >> X4_1); format: cell-based, HIV-1; conditions: PBMCs; Clone 4 envelope in NL4-3 infectious clone, tropism subtype R5 >> X4
Procedure: as §1

[11] = test system: Clone 11 (R5 >> X4_2); format: cell-based, HIV-1; conditions: PBMCs; Clone 11 envelope in NL4-3 infectious clone, tropism subtype R5 >> X4
Procedure: as §1

[12] = test system: primarily CXCR4-tropic viruses; assay: Entry of pseudotyped viruses into U87 cells in presence of co-receptor inhibitors (FIG. 5); format: cell-based, HIV-1
Procedure: (§2) Susceptibility assays for HIV-1 entry inhibitors were performed using packaging host cells consisting of the human embryonic kidney cell line 293 (Cell Culture Facility, UC San Francisco, SF, Calif.) and target host cells consisting of a human osteosarcoma (HOS) cell line expressing CD4 (HT4) plus CCR5, and CXCR4, or astrocytoma (U-87) cell lines expressing either CD4 and CCR5 or CD4 and CXCR4.
(§3) Drug susceptibility testing was performed using pHIVenv and pHIVluc or pHIVlucΔU3. Pseudotyped HIV particles containing envelope proteins encoded by the subject derived segment were produced by transfecting a packaging host cell (HEK 293) with resistance test vector DNA. […] After infection (˜72 h) the target cells are lysed and luciferase activity is measured. […] The amount of luciferase activity detected in the infected cells is used as a direct measure of “infectivity” (FIGS. 1 and 2). […]
(§4) Drug susceptibility is assessed by comparing the infectivity in the absence of drug to infectivity in the presence of drug. […]
(§5) First, 35 gp160 envelope genes derived from different patient samples that were originally identified as dual-tropic were cloned into an expression vector as described in Example 1. Tropism of pseudotyped virus was determined by measuring luciferase activity (relative light units, RLU) following infection of U87/CD4+CCR5+ or U87/CD4+CXCR4+ cells as described above. […]

[13] = test system: dual-tropic HIV-1 variants; conditions: for suppression of CXCR4-tropic virus: patients, 10 days of therapy
Procedure: First, samples from 26 subjects administered AMD3100 for 10 days were obtained prior to therapy and on day 11 following the 10 days of therapy. Co-receptor tropism of the viral populations from both sets of samples were then determined according to Example 1. […] 37(2):1253-62.

[14] = test system: Dual_X-tropic viruses; conditions: fully replication competent Dual_X-tropic viruses, PBMCs
Procedure: as §1

[15] = test system: dual-tropic viruses; assay: Infection of PBMCs by fully replication competent viruses (FIG. 7, summary); format: cell-based, HIV-1
Procedure: as §1

[16] = test system: primarily CCR5-tropic viruses; format: cell-based, HIV-1; conditions: primarily CCR5-tropic viruses into CCR5- and CXCR4-expressing cells
Procedure: as §2, §3, §4, §5

[17] = subjects with mixed populations, following treatment

## c1cc(CN2CCCNCCNCCCNCC2)ccc1CN1CCCNCCNCCCNCC1 [AMD, AMD3100]
[1]
  % inhibition: 11%
[2]
  % inhibition: 19%
[3]
  % inhibition: 99%
[4]
  % inhibition: −12%
[5]
  % inhibition: 99%
[6]
  % inhibition: 27%
[7]
  % inhibition: 98%
[8]
  % inhibition: 99%
[9]
  % inhibition: 41%
[10]
  % inhibition: −1%
[11]
  % inhibition: −3%
[12]; primarily CXCR4-tropic viruses into CCR5- and CXCR4-expressing cells
  inhibition of entry: inhibited
[12]; primarily CXCR4-tropic viruses into CXCR4-expressing cells
  inhibition of entry: inhibited
[13]; populations comprising 100% dual viruses (homogeneous) at baseline
  suppression of CXCR4-tropic virus: not suppressed
[13]; populations containing mixtures of CCR5-tropic and CXCR4-tropic or dual-tropic viruses at baseline
  suppression of CXCR4-tropic virus: experienced suppression
[13]; [17]
  entry into cells using the CXCR4 co-receptor: efficiently blocked
  entry using the CCR5 co-receptor: unaffected
[14]
  inhibition of entry: substantially inhibited
[15]
  inhibition of entry: partially inhibited
[16]
  inhibition of entry: not inhibited
